How the values were obtained:
Human PKK = target: T1, Human PKK (Homo sapiens, UniProt P03952); assay: Inhibition of PKK using an endpoint assay (human PKK); assay type: biochemical; conditions: fluorogenic substrate H-Pro-Phe-Arg-AMC, 1 h room temperature, method names human or rat PKK, table does not say which
T1 construct: purchased Enzyme Research Laboratories
Description: The ability of compounds of formula (I) to inhibit plasma kallikrein (PKK), Factor XIIa (FXIIa), Factor XIa (FXIa), Factor Xa (FXa), Factor IIa (alpha-thrombin; FIIa), plasmin, trypsin, tissue kallikrein 1 (TK1), Factor VIIa (FVIIa), or FVIIa complexed with Tissue Factor, phospholipids and CaCl2 (FVIIa/TF/PL/CaCl2) is determined using the following biochemical assays in assay buffer (100 mM Tris, 150 mM NaCL, adjusted to a pH of 7.8 with HCl, and containing 0.1% (w/v) BSA and 0.05% (v/v) Tween20) in the presence of 1% (v/v) DMSO:
Subsequently, PPACK II (Calbiochem) is added as a stop solution to achieve a final concentration of 1 μM and fluorescence is measured using an Envision Reader (PerkinElmer) with the wavelength excitation setting of 355 nm and the wavelength emission setting of 460 nm.

[1] = target: T2, PKK in kaolin activated human platelet poor plasma (Homo sapiens, UniProt P03952); assay: Inhibition of PKK in kaolin activated human PPP; assay type: biochemical; conditions: 25-750 μg/mL kaolin, global fit, text b200 calls the values IC90;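 note: readout is the rate of fluorogenic substrate cleavage in rfu per min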
T2 construct: Platelet poor plasma (PPP) obtained from human wholeblood; from tissue
Description: Platelet poor plasma (PPP) obtained from human wholeblood, anticoagulated with Na-Citrate, is incubated with various concentrations of the test compound together with either 25, 75, 250, or 750 μg/mL kaolin in assay buffer for 20 min at 37° C. such that for each kaolin dose used a concentration response is obtained for the test compound.

T2 sequence (P03952 391-638 limits assumed): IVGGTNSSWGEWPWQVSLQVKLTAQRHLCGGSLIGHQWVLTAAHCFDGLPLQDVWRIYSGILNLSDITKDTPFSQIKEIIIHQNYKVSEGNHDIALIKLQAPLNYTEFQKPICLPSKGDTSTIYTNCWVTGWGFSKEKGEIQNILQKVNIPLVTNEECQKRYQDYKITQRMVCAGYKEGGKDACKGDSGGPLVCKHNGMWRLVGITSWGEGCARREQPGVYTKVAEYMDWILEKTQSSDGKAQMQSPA
T2 sequence (P03952 20-390 limits assumed): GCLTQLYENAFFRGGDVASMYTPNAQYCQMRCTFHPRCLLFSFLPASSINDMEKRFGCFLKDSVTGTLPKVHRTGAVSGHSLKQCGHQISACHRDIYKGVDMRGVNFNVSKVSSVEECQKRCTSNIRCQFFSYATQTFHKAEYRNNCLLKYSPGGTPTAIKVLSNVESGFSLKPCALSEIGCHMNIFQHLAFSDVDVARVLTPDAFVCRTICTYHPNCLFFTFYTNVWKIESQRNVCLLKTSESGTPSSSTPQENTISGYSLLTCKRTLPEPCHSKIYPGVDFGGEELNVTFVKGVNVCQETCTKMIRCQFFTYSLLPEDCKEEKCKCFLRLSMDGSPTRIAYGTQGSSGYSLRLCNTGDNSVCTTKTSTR
T1 sequence (P03952 20-390 limits assumed): as above
T1 sequence (P03952 391-638 limits assumed): as the sequence (P03952 391-638 limits assumed) above

Row | Structure (SMILES) | IC50 (Human PKK) | IC50 [1]
1 | Cn1cnc2c1CC[C@H]2NC(=O)c1cn(Cc2ccc(N3CC4(CC4)C3)nc2F)nn1 [Example 10, 1-[(6-{5-Azaspiro[2.3]hexan-5-yl}-2-fluoropyridin-3-yl)methyl]-N-[(4R)-1-methyl-1H,4H,5H,6H-cyclo-penta[d]imidazol-4-yl]-1H-1,2,3-triazole-4-carboxamide] | 2.5 nM | 789 nM
2 | Cn1cnc2c1CC[C@H]2NC(=O)c1cn(Cc2ccc(N3CC4(CC4)C3)nc2F)cn1 [Example 11, 1-[(6-{5-Azaspiro[2.3]hexan-5-yl}-2-fluoropyridin-3-yl)methyl]-N-[(4R)-1-methyl-1H,4H,5H,6H-cyclopenta[d]imidazol-4-yl]-1H-imidazole-4-carboxamide] | 2.1 nM | 300 nM
3 | Cn1cnc2c1CC[C@H]2NC(=O)c1cnn(Cc2ccc(N3CC4(CC4)C3)nc2F)c1 [Example 12, 1-[(6-{5-Azaspiro[2.3]hexan-5-yl}-2-fluoropyridin-3-yl)methyl]-N-[(4R)-1-methyl-1H,4H,5H,6H-cyclopenta[d]imidazol-4-yl]-1H-pyrazole-4-carboxamide] | 3.4 nM | 802 nM
4 | Cn1cnc2c1CC[C@H]2NC(=O)c1cnn(Cc2ccc(N3CC4(CC4)C3)nc2Br)c1 [Example 13, 1-[(6-{5-Azaspiro[2.3]hexan-5-yl}-2-bromopyridin-3-yl)methyl]-N-[(4R)-1-methyl-1H,4H,5H,6H-cyclopenta[d]imidazol-4-yl]-1H-pyrazole-4-carboxamide] | 1.1 nM | 451 nM
5 | Cn1cnc2c1CC[C@H]2NC(=O)c1cn(Cc2ccc(N3CC4C(C3)C4(F)F)nc2Br)nn1 (stereo partly drawn) [Example 14, 1-[(2-Bromo-6-{6,6-difluoro-3-azabicyclo-[3.1.0]hexan-3-yl}pyridin-3-yl)methyl]-N-[(4R)-1-methyl-1H,4H,5H,6H-cyclopenta[d]imidazol-4-yl]-1H-1,2,3-triazole-4-carboxamide] | 1 nM | 636 nM
6 | Cn1cnc2c1CC[C@H]2NC(=O)c1cnn(Cc2ccc(N3CC4C(C3)C4(F)F)nc2Br)c1 (stereo partly drawn) [Example 15, 1-[(2-Bromo-6-{6,6-difluoro-3-azabicyclo-[3.1.0]hexan-3-yl}pyridin-3-yl)methyl]-N-[(4R)-1-methyl-1H,4H,5H,6H-cyclopenta[d]imidazol-4-yl]-1H-pyrazole-4-carboxamide] | 1.1 nM | 414 nM
7 | Cn1cnc2c1CC[C@H]2NC(=O)c1cn(Cc2ccc(N3CC4CC4C3)nc2F)nn1 (stereo partly drawn) [Example 17, 1-[(6-{3-Azabicyclo[3.1.0]hexan-3-yl}-2-fluoropyridin-3-yl)methyl]-N-[(4R)-1-methyl-1H,4H,5H,6H-cyclo-penta[d]imidazol-4-yl]-1H-1,2,3-triazole-4-carboxamide] | 2 nM | 818 nM
8 | Cn1cnc2c1CC[C@H]2NC(=O)c1cnn(Cc2ccc(N3CC4C(C3)C4(F)F)nc2F)c1 (stereo partly drawn) [Example 18, 1-[(6-{6,6-Difluoro-3-azabicyclo[3.1.0]hexan-3-yl}-2-fluoropyridin-3-yl)methyl]-N-[(4R)-1-methyl-1H,4H,5H,6H-cyclopenta[d]imidazol-4-yl]-1H-pyrazole-4-carboxamide] | 2.1 nM | 460 nM
9 | Cn1cnc2c1CC[C@H]2NC(=O)c1cn(Cc2ccc(N3CC4(CC4)C3)nc2Cl)cn1 [Example 21, 1-[(6-{5-Azaspiro[2.3]hexan-5-yl}-2-chloropyridin-3-yl)methyl]-N-[(4R)-1-methyl-1H,4H,5H,6H-cyclopenta[d]imidazol-4-yl]-1H-imidazole-4-carboxamide] | 0.9 nM | 325 nM
10 | Cn1cnc2c1CC[C@H]2NC(=O)c1cn(Cc2ccc(N3CC4C(C3)C4(F)F)nc2F)nn1 (stereo partly drawn) [Example 25, 1-[(6-{6,6-Difluoro-3-azabicyclo[3.1.0]hexan-3-yl}-2-fluoropyridin-3-yl)methyl]-N-[(4R)-1-methyl-1H,4H,5H,6H-cyclopenta[d]imidazol-4-yl]-1H-1,2,3-triazole-4-carboxamide] | 2 nM | 286 nM

— patent US12479827B2, “Heteroaromatic carboxamide derivatives as plasma kallikrein inhibitors” (Boehringer Ingelheim International GmbH, priority 2020, dated 2025)
